The source of these data is patent US8173648B2 (priority 2008, dated 2012).

The target of experiment [1] is T1, monoamine oxidase B (MAO-B) (Rattus norvegicus, UniProt P19643).
T1 construct: from tissue; host or cells: brain cortex of male F344/N rats (supernatant of homogenate)
T1 sequence (P19643 1-520): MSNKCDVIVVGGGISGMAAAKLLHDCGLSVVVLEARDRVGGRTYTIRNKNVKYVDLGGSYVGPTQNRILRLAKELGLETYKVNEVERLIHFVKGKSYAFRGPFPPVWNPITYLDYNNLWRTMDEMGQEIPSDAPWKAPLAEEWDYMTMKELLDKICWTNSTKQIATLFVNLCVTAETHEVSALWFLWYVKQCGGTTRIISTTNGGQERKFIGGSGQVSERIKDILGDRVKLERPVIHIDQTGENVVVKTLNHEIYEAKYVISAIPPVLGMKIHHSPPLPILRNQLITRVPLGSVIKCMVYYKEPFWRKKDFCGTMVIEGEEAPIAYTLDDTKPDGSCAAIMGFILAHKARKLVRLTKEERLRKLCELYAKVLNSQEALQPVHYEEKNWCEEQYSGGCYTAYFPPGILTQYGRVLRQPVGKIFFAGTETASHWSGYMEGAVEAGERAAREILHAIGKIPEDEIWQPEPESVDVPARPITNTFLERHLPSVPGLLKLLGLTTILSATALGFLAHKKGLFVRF
The experiment can be described thus: biochemical. The protocol:
At first, monoamine oxidase B (MAO-B) was purified from rat brain cortex, and then activity inhibition assay of these derivatives against monoamine oxidase B(MAO-B) was carried out.
MAO-B enzyme preparations were prepared from brain cortex of decapitalized male F344/N rats. The brain cortex in PBS solution was frozen with liquid nitrogen and kept at −80° C. for 3 days. The homogenate was then obtained by centrifugation (14,000 rpm, 10 min) of the frontal cortex in 0.1 M potassium phosphate buffer (pH 7.4) at 4° C. and the supernatant was taken as the enzyme source for MAO. A standard solution containing 0.1 M potassium phosphate buffer and albumin were prepared in different concentration grades. Ten microliters of each solution was taken and added with 200 μl of BCA kit. Following the similar method, the above supernatant from brain cortex was diluted and 10 μl of stock solution taken and added with […] of BCA kit. Both standard and sample solutions were incubated at 37° C. for 30 min. 200 μl of the solutions was added to each well of a 96-well microplate and the protein contents were measured with a fluorescence microplate reader by determining optical density at 595 nm.
To the supernatant (protein content, 80 μg/ml) in 96-well microplate was added with 1 U/ml HRP (Horseradish Peroxidase), […] benzylamine, and 50 μM Amplex red in 0.1 M potassium phosphate buffer followed by the tested sample, which was prepared in 200 μg/ml in DMSO as stock solution. These mixtures were incubated at room temperature for 60 min and optical density was determined by a fluorometric reader. Its IC50 was calculated then with the following formula. IC50: median inhibitory concentration, which is defined in this example as the concentration of a inhibitor that is needed for inhibiting 50% activity of an enzyme. Inhibition (%)=1−[(OD595 of sample/protein−[…] of sample)/OD595 of blank]×100% • OD595: Optical density at 595 nm (wavelength) • protein: protein content of control 3. Statistical Analysis

Experiment [2] addresses T2, γ-secretase (Homo sapiens, UniProt P49768).
T2 construct: measure the activity of γ-secretase in T-20 cell line; endogenous in cells; host or cells: T-20 (T-REx293/HEK293 stably transfected with C99-GV/TO and Gal4-Luc)
In words: Cell-based γ-secretase assay (luciferase reporter) in T-20 cell line.
Experimental: In this example, a quantitative cell-based assay described in reference (2) and (3) was employed to measure the activity of γ-secretase in T-20 cell line.
Cell lysis and the addition of reagents for luciferase assay were completed simultaneously using the Steady-Glo luciferase assay system (Promega) as described in the manufacturer's instructions. Luciferase signals were determined by a VictorLight microplate luminometer (PerkinElmer).
A quantitative cell-based γ-secretase assay in T-20 cell line described in reference (2) was employed to measure the activity of γ-secretase. In this example, said assay and cell line thereof was used to measure effect of 1,2,3,4-tetrahydroisoquinoline derivatives on the activity of γ-secretase.
T-20 cells were routinely maintained in DMEM supplemented with 10% FBS, 200 μg/ml of hygromycin, 5 μg/ml of blasticidin, and 250 μg/ml of zeocin (DMEM-HZB). The stably transfected T-20 cells were detached from culture dishes by trypsinization, washed with PBS, and resuspended in DMEM-HZB, followed by plating onto 96-well microplates (2×10^4 cells/50 μl/well) and incubating at 37° C. for 24 hours. Preliminarily, compounds diluted in DMEM-HZB were added to a final concentration of 10 μM in the presence of tetracycline (1 μg/ml). Treatments were terminated after incubation at 37° C. for 24 hours by adding directly an equivalent volume of the Steady-Glo luciferase assay reagent (Promega), and measurements of luciferase signals from each well were performed immediately with the VictorLight microplate luminometer) (PerkinElmer). Triplicates of each compound treatment were assayed. Luciferase signal from the stable line without tetracycline induction and compound treatment was referred to as one-fold of activation. Parallel testing with a cell line constitutively expressing only the luciferase reporter gene (e.g., under control of a CMV promoter) was performed as a control.
Briefly, T-20 cell line was induced by tetracycline to express C99-GV protein fragment on cell membrane.

For experiment [3], the system named is ERK1/2. The experiment can be described thus: Assay for extracellular signal-regulated kinase (ERK) activity (Western blot p-ERK1/2 / ERK1/2). The experiment is classed as cell-based, Human. As to conditions: for Activation of ERK1/2 (p-ERK/ERK, (%)): 10 μM, T-20 cells, positive control = 100, mean ± SD of three experiments. As to the method: Cell line used in this example were same as those described in example 2.
The activation of the ERKs was measured by using anti-phospho-ERK1/2 and anti-ERK1/2 antibodies (Cell Signaling Technology). In brief, T-20 cells were grown in six-well plates at 5×10^5 cells/well and incubated with culture medium at 37° C. for 18 hours, followed by an additional incubation with culture medium containing 1 μg/ml of tetracycline at 37° C. for 18 hours. Before the experiments, we replaced the medium with DMEM containing 0.5% FBS and treated it with the tested compounds (10 μM each). After treatment, reactions were stopped by placing cells on ice and aspirating off the medium. Cells were harvested and lysed in 50 mM Tris-HCl (pH 8.0), 150 mM NaCl, 5 mM EDTA, 1 mM sodium orthovanadate, 1% Triton X-100, and protease- and phosphatase-inhibitor cocktails. Protein concentration was determined by the BCA assay (Pierce). Each cell lysate, which contained 50 μg proteins, was separated on 12% SDS-polyacrylamide electrophoresis gels, immunoblotted, and identified using anti-phospho-ERK1/2 or anti-ERK1/2 antibody. In this example, T-20 cell line treated with medium containing 1% DMSO and 1 μg/ml of tetracycline was used as positive control group; T-20 cell line treated with medium containing various compounds (10 μM), 1% DMSO and 1 μg/ml of tetracycline were used as test groups for different compounds.

Experiment [4] concerns soluble amyloid precursor protein α (sAPPα). The experiment can be described thus: Effect on secretion of sAPPα in γ-30 cells (Western blot, 6E10 antibody). The experiment is classed as cell-based, Chinese hamster. Conditions: 10 μM; for protein content of sAPPα detected by Western blot: FIG. 4A. The protocol: It is known that monoamine oxidase B (MAO-B) inhibitor can activate directly or indirectly ERK-related pathway, so as to regulate amyloid precursor protein (APP) proteolytic process, which lead to modulate indirectly the secretion of soluble amyloid precursor protein α (sAPPα), and inhibit indirectly the production of insoluble β amyloid-peptides (Aβ). […] Thus, in this example, assay was carried out in γ-30 cells to examine the effect of 1,2,3,4-tetrahydroisoquinoline derivatives (12a, c and d) on the secretion of sAPPα.
As described in reference (3) and (6), briefly described below. PS70 Chinese hamster ovary cell (CHO cell) was used to perform a transfection to obtain γ-30 stably transfected cell line, γ-30 stably transfected cell line was used to express then full length amyloid precursor protein (APP) and human PS1, Aph-1α2, and Pen-2 proteins (Human PS, Aph-1α2, and Pen-2). This cell line could be used as the ideal model cell for detecting α-secretase degradation of amyloid precursor protein (APP).
Each group of corresponding cell lysate in example 5 was prepared to identical protein content. Proteins with different molecular weight were separated by means of electrophoresis on SDS-PAGE and Western Blot assay was carried using anti-Aβ1-17 monoclonal antibody (6E10) (purchased from US Chemicom Co.). In this example, γ-30 cell line treated with medium containing 1% DMSO was used as negative control group, γ-30 cell lines treated with medium containing different compounds (10 μM), 1% DMSO and 1 μg/ml of tetracycline were used as test group for different compounds, respectively.
γ-30 stably transfected cell line expresses full length amyloid precursor protein (APP) and human PS1, Aph-1α2, and Pen-2 proteins. When α-secretase cleavages amyloid precursor protein (APP), soluble amyloid precursor protein α (sAPPα) is formed, which can be used to detect whether a compound has an effect on the secretion of soluble amyloid precursor protein α (sAPPα). To this end, Western blot assay using Aβ1-17 monoclonal antibody (6E10) was carried out to detect soluble amyloid precursor protein α (sAPPα). […] Thereafter, results from Western blot assay were subjected to quantitatively statistical analysis.

[5] abbreviates: T20, read-out: inhibition of the activity of γ-secretase compared with positive control group.

Like-named read-outs stand apart in the source and are kept apart here.

Consider `C#CCN1CCc2ccc(OC(=O)N(C)CC)cc2C1` [Compound 11a, 7-(N-Methyl-N-ethylcarbamoyloxy)-N-propargyl-1,2,3,4-tetrahydroisoquinoline], for which, in experiment [1], half-maximal inhibition (IC50) was put at 21.5 ± 1 µM.

On to `C#CCN1CCc2ccc(OC(=O)N3CCCC3)cc2C1` [Compound 11b, 7-(1-Pyrrolidinecarbamoyloxy)-N-propargyl-1,2,3,4-tetrahydroisoquinoline], for which half-maximal inhibition in experiment [1] (IC50) was put at 13.9 ± 0.5 µM.

In turn, `C#CCN1CCc2ccc(OC(=O)N3CCCCC3)cc2C1` [Compound 11c, 7-(1-Piperidinecarbamoyloxy)-N-propargyl-1,2,3,4-tetrahydroisoquinoline] returned an IC50 in experiment [1] of 15.7 ± 2.2 µM.

In turn, `C#CCN1CCc2ccc(OC(=O)N3CCOCC3)cc2C1` [Compound 11d, 7-(1-Morpholinecarbamoyloxy)-N-propargyl-1,2,3,4-tetrahydroisoquinoline] registered an IC50 in experiment [1] of 18.7 ± 1.6 µM.

For `CCN(C)C(=O)Oc1ccc2c(c1)CN(CC1CC1)CC2` [Compound 12a, 7-(N-Methyl-N-ethylcarbamoyloxy)-N-cyclopropylmethyl-1,2,3,4-tetrahydroisoquinoline], in experiment [2] (setting [5]), the inhibition at 10 µM lay in the range of 35 to 72%. This compound also had a half-maximal inhibitory concentration (IC50) in experiment [1] of 12.8 ± 2 µM. The “Activation of ERK1/2 (p-ERK/ERK, (%))” value in experiment [3] is on record as 131 ± 10%. Moreover, in experiment [4], the “protein content of sAPPα detected by Western blot” value (“protein content of sAPPα detected” below) is recorded as “higher than that of negative control group”. Also, in experiment [4] (FIG. 4B), the “relative sAPPα secretion (quantified Western blot)” value (“relative sAPPα secretion” for short) is “could promote the secretion”.

The compound `O=C(Oc1ccc2c(c1)CN(CC1CC1)CC2)N1CCCC1` [Compound 12b, 7-(1-Pyrrolidinecarbamoyloxy)-N-cyclopropylmethyl-1,2,3,4-tetrahydroisoquinoline] gave an IC50 in experiment [1] of 14.9 ± 1.1 µM.

With `O=C(Oc1ccc2c(c1)CN(CC1CC1)CC2)N1CCCCC1` [Compound 12c, 7-(1-Piperidinecarbamoyloxy)-N-cyclopropylmethyl-1,2,3,4-tetrahydroisoquinoline], the inhibition at 10 µM in experiment [2] (setting [5]) was in the range of 35 to 72%. The IC50 in experiment [1] was found to be 11.6 ± 0.7 µM. Further, the “ability to activate ERK relative to rasagiline test group” value in experiment [3] (10 μM each) is on record as 1.2 times. Further, the “Activation of ERK1/2 (p-ERK/ERK, (%))” value in experiment [3] was 155 ± 28 %. The “protein content of sAPPα detected” value in experiment [4] is given as “higher than that of negative control group”. Besides, in experiment [4] (FIG. 4B), the “promotion of sAPPα secretion compared with rasagiline test group” value was “better promotion effect than rasagiline test group” and the “relative sAPPα secretion” value is reported as “could promote the secretion”.

With `O=C(Oc1ccc2c(c1)CN(CC1CC1)CC2)N1CCOCC1` [Compound 12d, 7-(1-Morpholinecarbamoyloxy)-N-cyclopropylmethyl-1,2,3,4-tetrahydroisoquinoline], in experiment [2] (setting [5]), the inhibition at 10 µM was in the range of 35 to 72%. This compound came in with an IC50 in experiment [1] of 18.5 ± 0.8 µM. Further, the “Activation of ERK1/2 (p-ERK/ERK, (%))” value in experiment [3] is 138 ± 39%. In addition, the “protein content of sAPPα detected” value in experiment [4] is “higher than that of negative control group”. The “relative sAPPα secretion” value in experiment [4] (FIG. 4B) is “could promote the secretion”.

Turning to `C#CCN[C@@H]1CCc2ccccc21` [Rasagiline, rasagiline, reference compound], the inhibition at 10 µM in experiment [2] (T20, 10 μM, T-20 cells, 24 hours, tetracycline 1 μg/ml, FIG. 2, read-out: inhibition of the activity of γ-secretase compared with positive control group) was 6 to 15%. In addition, the “Activation of ERK1/2 (p-ERK/ERK, (%))” value in experiment [3] is 131 ± 14%.
